For assay [1], the system named is ENR+CD organoids. As to the kind of experiment: Primary screen: ATP (CellTiter-Glo 3D, CTG) cell number/viability, 2.5-D 384-well ENR+CD organoids.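 Further: compounds given at plating and again on day 3 over a 6-day differentiation from ENR+CV stem-cell-enriched precursors, ATP measured on day 6, plate median as control.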 The following applies: primary screen. On the technique in general: Cellular ATP, detected with luciferase, serves as a proxy for viable cell number.
The subject of assay [2] is ENR+CD organoids (ISC to Paneth cell differentiation). As to the kind of experiment: Primary screen: CCh-stimulated lysozyme secretion LYZ.S, 2.5-D 384-well ENR+CD organoid differentiation. The assay is classed as cell-based, mouse. The following applies: primary screen. The text has this: (§1) High-throughput screening.
Assay [3] shares this test system. As to the kind of experiment: Primary screen: basal (non-stimulated) lysozyme secretion LYZ.NS, 2.5-D 384-well ENR+CD organoid differentiation. The assay is classed as cell-based, mouse. As to conditions: primary screen; for Z.LYZ.NS: standard z score.
Excerpt: as §1

Where [4] appears, read: dose 0.08 uM, FC vs plate median.
[5] abbreviates: dose 0.40 uM, FC vs plate median.
Where [6] appears, read: dose 2.00 uM, FC vs plate median.
[7] abbreviates: dose 10.00 uM, FC vs plate median.

The results in this text go back to patent US20220323406A1, “METHODS AND COMPOSITIONS FOR DIFFERENTIATING STEM CELLS” (Massachusetts Institute of Technology, priority 2019, published 2022).

`COc1ccnc2[nH]cc(C(=O)C(=O)N3CCN(C(=O)c4ccccc4)C[C@H]3C)c12` [BMS-378806]: the Dose.FC.CTG was 0.233 log2 fold change in assay [1] (dose 0.08 uM), −0.289 log2 fold change in assay [1] (dose 2.00 uM) and −1.155 log2 fold change in assay [1] (dose 10.00 uM). Besides, the “Z.CTG (standard z score)” value in assay [1] (dose 0.08 uM) is listed as 0.557; in assay [1] (dose 2.00 uM), −0.691; in assay [1] (dose 10.00 uM), −2.758. For the same compound, the Dose.FC.LYZ.S in assay [2] (dose 0.08 uM) is 0.159 log2 fold change; in assay [2] (dose 2.00 uM), −0.142 log2 fold change; in assay [2] (dose 10.00 uM) it was −0.322 log2 fold change. Besides, the Dose.FC.LYZ.NS in assay [3] (dose 0.08 uM) was 0.141 log2 fold change; in assay [3] (dose 2.00 uM) it was −0.100 log2 fold change; in assay [3] (dose 10.00 uM) it was −0.227 log2 fold change. Moreover, the “Z.LYZ.NS (standard z score)” value in assay [3] (dose 0.08 uM) is 1.231; in assay [3] (dose 2.00 uM), −0.870; in assay [3] (dose 10.00 uM), −1.977.

With `CC(C)CCN1c2nc(Nc3cc(F)c(O)c(F)c3)ncc2N(C)C(=O)C1C` (centres unmarked) [BI-D1870], the Dose.FC.CTG in assay [1] (dose 0.08 uM) is reported as 0.186 log2 fold change; in assay [1] (dose 0.40 uM) it was 0.029 log2 fold change; in assay [1] (dose 2.00 uM), −0.012 log2 fold change; in assay [1] (dose 10.00 uM), −0.700 log2 fold change. Also, the “Z.CTG (standard z score)” value in assay [1] (dose 0.08 uM) is reported as 0.444; in assay [1] (dose 0.40 uM), 0.069; in assay [1] (dose 2.00 uM) it was −0.028; in assay [1] (dose 10.00 uM) it was −1.673. For the same compound, the Dose.FC.LYZ.S is on record as 0.162 log2 fold change in assay [2] (dose 0.08 uM), 0.158 log2 fold change in assay [2] (dose 0.40 uM), 0.008 log2 fold change in assay [2] (dose 2.00 uM) and −0.378 log2 fold change in assay [2] (dose 10.00 uM). Moreover, the Dose.FC.LYZ.NS is 0.141 log2 fold change in assay [3] (dose 0.08 uM), 0.126 log2 fold change in assay [3] (dose 0.40 uM), −0.066 log2 fold change in assay [3] (dose 2.00 uM) and −0.285 log2 fold change in assay [3] (dose 10.00 uM). Also, the “Z.LYZ.NS (standard z score)” value in assay [3] (dose 0.08 uM) is recorded as 1.225; in assay [3] (dose 0.40 uM) it was 1.099; in assay [3] (dose 2.00 uM), −0.574; in assay [3] (dose 10.00 uM), −2.483.

Take `COc1ccc2cc(-c3nc(-c4ccc([S+](C)[O-])cc4)[nH]c3-c3ccncc3)ccc2c1` (centres unmarked) [Tie2 kinase inhibitor]: the Dose.FC.CTG is listed as 0.005 log2 fold change in assay [1] (dose 0.08 uM), 0.074 log2 fold change in assay [1] (dose 0.40 uM), −0.314 log2 fold change in assay [1] (dose 2.00 uM) and −0.549 log2 fold change in assay [1] (dose 10.00 uM). The “Z.CTG (standard z score)” value in assay [1] (dose 0.08 uM) is 0.012; in assay [1] (dose 0.40 uM), 0.177; in assay [1] (dose 2.00 uM), −0.750; in assay [1] (dose 10.00 uM), −1.311. Also, the Dose.FC.LYZ.S is listed as 0.018 log2 fold change in assay [2] (dose 0.08 uM), −0.021 log2 fold change in assay [2] (dose 0.40 uM), 0.024 log2 fold change in assay [2] (dose 2.00 uM) and −0.097 log2 fold change in assay [2] (dose 10.00 uM). In addition, the Dose.FC.LYZ.NS in assay [3] (dose 0.08 uM) is recorded as 0.009 log2 fold change; in assay [3] (dose 0.40 uM), 0.002 log2 fold change; in assay [3] (dose 2.00 uM), 0.181 log2 fold change; in assay [3] (dose 10.00 uM), −0.031 log2 fold change. Moreover, the “Z.LYZ.NS (standard z score)” value is on record as 0.080 in assay [3] (dose 0.08 uM), 0.019 in assay [3] (dose 0.40 uM), 1.577 in assay [3] (dose 2.00 uM) and −0.274 in assay [3] (dose 10.00 uM).

As for `NC(=O)N1c2ccccc2CC(=O)c2ccccc21` [Oxcarbazepine], the Dose.FC.CTG in assay [1] (setting [4]) was −0.021 log2 fold change; in assay [1] (setting [5]), −0.103 log2 fold change; in assay [1] (setting [6]), −0.082 log2 fold change; in assay [1] (setting [7]), −0.150 log2 fold change. Besides, the Dose.FC.LYZ.S in assay [2] (setting [4]) was 0.043 log2 fold change; in assay [2] (setting [5]), 0.154 log2 fold change; in assay [2] (setting [6]), 0.042 log2 fold change; in assay [2] (setting [7]) it was −0.057 log2 fold change. Moreover, the Z.LYZ.NS in assay [3] (dose 0.08 uM) is given as 0.035; in assay [3] (dose 0.40 uM), −0.001; in assay [3] (dose 2.00 uM), 0.349; in assay [3] (dose 10.00 uM), −0.527. Besides, the Dose.FC.LYZ.NS in assay [3] (setting [4]) is on record as 0.004 log2 fold change; in assay [3] (setting [5]), 0.000 log2 fold change; in assay [3] (setting [6]) it was 0.040 log2 fold change; in assay [3] (setting [7]), −0.061 log2 fold change.

In the case of `O=c1cc(-c2ccc(O)cc2)oc2cc(O)cc(O)c12` [Apigenin], the Dose.FC.CTG in assay [1] (dose 0.08 uM) turned out to be 0.246 log2 fold change; in assay [1] (dose 0.40 uM) it was 0.214 log2 fold change; in assay [1] (dose 2.00 uM) it was 0.315 log2 fold change; in assay [1] (dose 10.00 uM) it was 0.026 log2 fold change. The Dose.FC.LYZ.S in assay [2] (dose 0.08 uM) came to 0.192 log2 fold change; in assay [2] (dose 0.40 uM), 0.165 log2 fold change; in assay [2] (dose 2.00 uM), 0.196 log2 fold change; in assay [2] (dose 10.00 uM) it was 0.098 log2 fold change. Besides, the Dose.FC.LYZ.NS in assay [3] (dose 0.08 uM) is 0.132 log2 fold change; in assay [3] (dose 0.40 uM) it was 0.130 log2 fold change; in assay [3] (dose 2.00 uM), 0.232 log2 fold change; in assay [3] (dose 10.00 uM), 0.097 log2 fold change. Also, the “Z.LYZ.NS (standard z score)” value is reported as 1.147 in assay [3] (dose 0.08 uM), 1.131 in assay [3] (dose 0.40 uM), 2.021 in assay [3] (dose 2.00 uM) and 0.847 in assay [3] (dose 10.00 uM).

Regarding Ifenprodil Tartrate, the “Dose.FC.CTG (log2 fold change)” value in assay [1] (dose 0.08 uM) is listed as 0.102; in assay [1] (dose 0.40 uM), 0.111; in assay [1] (dose 2.00 uM), −0.003; in assay [1] (dose 10.00 uM) it was −1.034. Moreover, the “Z.CTG (standard z score)” value in assay [1] (dose 0.08 uM) is 0.243; in assay [1] (dose 0.40 uM), 0.265; in assay [1] (dose 2.00 uM), −0.008; in assay [1] (dose 10.00 uM) it was −2.471. Also, the “Dose.FC.LYZ.S (log2 fold change)” value in assay [2] (dose 0.08 uM) is given as 0.050; in assay [2] (dose 0.40 uM), 0.017; in assay [2] (dose 2.00 uM) it was −0.023; in assay [2] (dose 10.00 uM), −0.301. The “Dose.FC.LYZ.NS (log2 fold change)” value in assay [3] (dose 0.08 uM) is recorded as 0.056; in assay [3] (dose 0.40 uM), −0.019; in assay [3] (dose 2.00 uM) it was 0.123; in assay [3] (dose 10.00 uM), −0.219. In addition, the “Z.LYZ.NS (standard z score)” value is listed as 0.492 in assay [3] (dose 0.08 uM), −0.161 in assay [3] (dose 0.40 uM), 1.068 in assay [3] (dose 2.00 uM) and −1.909 in assay [3] (dose 10.00 uM).
